Experiments:
[1] = molecular target: T1, Prostaglandin E2 receptor EP1 subtype (Homo sapiens, UniProt P34995); assay: Antagonist activity at human EP1 expressed in CHO cells coexpressing G16-alpha assessed as intracellular calcium flux preincubated for 15 mins followed by addition of PGE2 by calcium flux assay; assay type: functional, cell-based
T1 sequence (P34995 whole entry): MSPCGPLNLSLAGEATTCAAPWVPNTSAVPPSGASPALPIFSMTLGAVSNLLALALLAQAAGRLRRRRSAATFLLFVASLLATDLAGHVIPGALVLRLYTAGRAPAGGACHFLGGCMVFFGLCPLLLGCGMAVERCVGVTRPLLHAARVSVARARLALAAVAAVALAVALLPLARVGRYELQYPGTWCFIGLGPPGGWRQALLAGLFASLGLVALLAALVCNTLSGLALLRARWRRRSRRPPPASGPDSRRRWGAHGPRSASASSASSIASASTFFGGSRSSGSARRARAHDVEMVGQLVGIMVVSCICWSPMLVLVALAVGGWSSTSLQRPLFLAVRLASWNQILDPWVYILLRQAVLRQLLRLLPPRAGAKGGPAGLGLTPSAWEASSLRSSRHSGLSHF

[2] = molecular target: T2, CYP1A2 (Homo sapiens, UniProt P05177); assay: Inhibition of CYP1A2 in human liver microsomes at 20 uM using phenacetin as substrate incubated for 30 mins by HPLC analysis relative to control; assay type: ADME; settings: probe phenacetin
T2 sequence (P05177 whole entry): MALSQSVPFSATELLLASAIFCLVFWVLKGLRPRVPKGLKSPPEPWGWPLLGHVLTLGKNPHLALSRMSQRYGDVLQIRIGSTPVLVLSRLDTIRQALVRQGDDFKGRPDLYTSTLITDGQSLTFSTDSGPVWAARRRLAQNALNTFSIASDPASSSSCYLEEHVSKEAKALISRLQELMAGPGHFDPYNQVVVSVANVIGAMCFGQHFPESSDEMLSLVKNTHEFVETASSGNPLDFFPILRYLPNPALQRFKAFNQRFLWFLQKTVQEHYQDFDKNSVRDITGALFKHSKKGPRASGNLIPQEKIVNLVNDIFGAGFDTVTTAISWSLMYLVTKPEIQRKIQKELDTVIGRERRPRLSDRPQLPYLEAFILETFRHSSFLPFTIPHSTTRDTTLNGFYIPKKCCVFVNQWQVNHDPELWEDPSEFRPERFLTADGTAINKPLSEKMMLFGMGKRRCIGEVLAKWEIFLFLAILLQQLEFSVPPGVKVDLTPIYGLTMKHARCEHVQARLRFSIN

[3] = molecular target: T3, CYP2B6 (Homo sapiens, UniProt P20813); assay: Inhibition of CYP2B6 in human liver microsomes at 20 uM incubated for 60 mins by HPLC analysis relative to control; assay type: ADME
T3 sequence (P20813 whole entry): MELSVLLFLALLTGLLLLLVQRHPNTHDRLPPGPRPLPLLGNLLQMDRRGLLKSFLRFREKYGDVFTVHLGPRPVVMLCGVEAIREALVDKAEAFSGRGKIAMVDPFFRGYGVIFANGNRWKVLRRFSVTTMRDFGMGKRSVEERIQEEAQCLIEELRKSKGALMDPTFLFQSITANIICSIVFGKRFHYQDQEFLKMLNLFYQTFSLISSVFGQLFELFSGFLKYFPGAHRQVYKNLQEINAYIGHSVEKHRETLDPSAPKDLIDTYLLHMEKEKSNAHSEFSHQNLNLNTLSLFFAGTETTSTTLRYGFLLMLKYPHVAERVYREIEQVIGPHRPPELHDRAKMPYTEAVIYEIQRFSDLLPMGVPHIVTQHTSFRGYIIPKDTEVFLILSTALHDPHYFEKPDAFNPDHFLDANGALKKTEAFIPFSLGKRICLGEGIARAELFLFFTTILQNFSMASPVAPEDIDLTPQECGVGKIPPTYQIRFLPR

[4] = Volume of distribution at steady state in BALB/c mouse at 1 mg/kg, iv measured upto 24 hrs by LC-MS/MS analysis; settings: in vivo
[5] = Apparent volume of distribution in BALB/c mouse at 1 mg/kg, iv measured upto 24 hrs by LC-MS/MS analysis; settings: in vivo
[6] = Clearance in BALB/c mouse at 1 mg/kg, iv measured upto 24 hrs by LC-MS/MS analysis; settings: in vivo
[7] = Half life in BALB/c mouse at 1 mg/kg, iv measured upto 24 hrs by LC-MS/MS analysis; settings: in vivo
[8] = molecular target: T4, Prostaglandin E2 receptor EP4 subtype (Homo sapiens, UniProt P35408); assay: Inhibition of human EP4 transfected in human HEK293 cells assessed as reduction in PGE2-induced cAMP level incubated for 15 mins followed by PGE2 stimulation and measured every 2 mins for 30 mins by GloSensor cAMP Assay
[9] = molecular target: T4, Prostaglandin E2 receptor EP4 subtype; assay: Inhibition of human EP4 transfected in human HEK293 cells co transfected with SmBit-beta-arrestin. assessed as reduction in PGE2 induced-beta-arrestin recruitment by NanoBiT beta-arrestin recruitment assay
[10] = system: CT26; assay: Antitumor activity against mouse CT26 cells xenografted in BALB/c mouse assessed as tumor growth inhibition at 16 mg/kg, po administerd daily and measured after two weeks; settings: 336 h, read-out: TGI
[11] = Half life in BALB/c mouse at 5 mg/kg, po measured upto 24 hrs by LC-MS/MS analysis; settings: in vivo
[12] = molecular target: T4, Prostaglandin E2 receptor EP4 subtype
Description: Antagonist activity at human EP4 expressed in CHO cells coexpressing G16-alpha assessed as intracellular calcium flux preincubated for 15 mins followed by addition of PGE2 by calcium flux assay

[13] = molecular target: T5, Prostaglandin E2 receptor EP3 subtype (Homo sapiens, UniProt P43115)
T5 sequence (P43115 whole entry): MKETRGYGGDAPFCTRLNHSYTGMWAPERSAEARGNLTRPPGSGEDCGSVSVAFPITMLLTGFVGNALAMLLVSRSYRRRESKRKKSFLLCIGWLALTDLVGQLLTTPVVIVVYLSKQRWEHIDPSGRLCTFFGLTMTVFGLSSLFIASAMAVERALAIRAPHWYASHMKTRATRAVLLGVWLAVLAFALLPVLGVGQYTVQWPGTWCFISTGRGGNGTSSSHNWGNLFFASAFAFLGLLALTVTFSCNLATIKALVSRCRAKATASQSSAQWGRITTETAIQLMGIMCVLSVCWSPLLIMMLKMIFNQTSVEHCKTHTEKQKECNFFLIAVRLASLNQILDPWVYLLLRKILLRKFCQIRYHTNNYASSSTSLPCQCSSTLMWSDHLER
Description: Antagonist activity at human EP3 expressed in CHO cells coexpressing G16-alpha assessed as intracellular calcium flux preincubated for 15 mins followed by addition of PGE2 by calcium flux assay

[14] = in vivo; settings: BALB/c, mouse, iv, 1 mg/kg
[15] = in vivo; settings: BALB/c, mouse, iv, 1 mg/kg; remark: listed apart in the source
[16] = in vivo; settings: BALB/c, mouse, po, 5 mg/kg
Description: Cmax in BALB/c mouse at 5 mg/kg, po measured upto 24 hrs by LC-MS/MS analysis

[17] = in vivo; settings: BALB/c, mouse, po, 5 mg/kg; remark: listed apart in the source
Description: AUC (0 to infinity) in BALB/c mouse at 5 mg/kg, po measured upto 24 hrs by LC-MS/MS analysis

[18] = in vivo; settings: BALB/c, mouse, po, 5 mg/kg; remark: listed apart in the source
Description: Oral bioavailability in BALB/c mouse at 5 mg/kg measured upto 24 hrs by LC-MS/MS analysis

[19] = in vitro; settings: CD1, mouse, liver microsomes
[20] = in vitro; settings: CD1, mouse, liver microsomes; remark: listed apart in the source

T4 sequence (P35408 whole entry): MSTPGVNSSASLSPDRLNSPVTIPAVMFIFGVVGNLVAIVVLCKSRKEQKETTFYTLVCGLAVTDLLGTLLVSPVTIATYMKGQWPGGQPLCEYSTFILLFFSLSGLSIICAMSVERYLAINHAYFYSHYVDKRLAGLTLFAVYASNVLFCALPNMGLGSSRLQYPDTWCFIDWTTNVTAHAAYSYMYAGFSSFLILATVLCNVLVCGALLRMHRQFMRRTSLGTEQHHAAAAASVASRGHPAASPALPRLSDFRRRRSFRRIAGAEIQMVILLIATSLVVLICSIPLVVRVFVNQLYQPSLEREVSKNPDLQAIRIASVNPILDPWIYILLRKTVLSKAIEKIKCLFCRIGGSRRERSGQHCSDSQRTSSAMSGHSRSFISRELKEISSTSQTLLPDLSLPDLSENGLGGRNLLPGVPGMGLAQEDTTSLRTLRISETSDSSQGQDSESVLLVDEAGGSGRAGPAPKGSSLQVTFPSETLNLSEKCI

## C/C=C/c1nnn(Cc2ccc(C(F)(F)F)cc2)c1C(=O)N[C@@H](C)c1ccc(C(=O)O)cc1
[1]
  IC50: > 10000 nM
[2]
  inhibition at 0.5 h, 20 µM: 27%
[3]
  inhibition at 1 h, 20 µM: 26%
[4]
  Vd at 24 h: 4.4 L/kg
[5]
  Vd at 24 h: 10.2 L/kg
[6]
  clearance at 24 h: 28.3 mL/min/kg
[7]
  half-life at 24 h: 4.1 h
[8]
  IC50: 18.7 nM
  Kb: 5.62 nM
[9]
  IC50: 0.4 nM
[10]
  inhibition in vivo at 16 mg/kg: 24.6%
[11]
  half-life at 24 h: 4.7 h
[12]
  IC50: 6.1 nM
[13]
  IC50: > 10000 nM
[14]
  Cmax at 24 h: 1200 ng/mL
[15]
  AUC(0-inf) at 24 h: 575 ng·h/mL
[16]
  Cmax at 24 h: 194 ng/mL
[17]
  AUC(0-inf) at 24 h: 1240 ng·h/mL
[18]
  bioavailability at 24 h: 48%
[19]
  half-life at 1 h, 10 µM: > 2.42 h
[20]
  microsomal CLint at 1 h, 10 µM: < 9.6 µL/min/mg

— ChEMBL document CHEMBL4376865, “Discovery and Characterization of 1H-1,2,3-Triazole Derivatives as Novel Prostanoid EP4 Receptor Antagonists for Cancer Immunotherapy” (J Med Chem, 2020)
